Measurements: ChEMBL document CHEMBL3792292, “Development of a potent and selective FLT3 kinase inhibitor by systematic expansion of a non-selective fragment-screening hit” (Bioorg Med Chem Lett, 2016)

Assays:
[1] = molecular target: T1, Interleukin-1 receptor-associated kinase 4 (Homo sapiens) (UniProt Q9NWZ3); test: Inhibition of full length human N-terminal GST-tagged IRAK4 (1 to 460 residues) expressed in baculovirus expression system using fluorescence labelled IRAK1 peptide substrate at 50 times IC50 by electrophoretic mobility shift assay relative to control
T1 sequence (whole entry): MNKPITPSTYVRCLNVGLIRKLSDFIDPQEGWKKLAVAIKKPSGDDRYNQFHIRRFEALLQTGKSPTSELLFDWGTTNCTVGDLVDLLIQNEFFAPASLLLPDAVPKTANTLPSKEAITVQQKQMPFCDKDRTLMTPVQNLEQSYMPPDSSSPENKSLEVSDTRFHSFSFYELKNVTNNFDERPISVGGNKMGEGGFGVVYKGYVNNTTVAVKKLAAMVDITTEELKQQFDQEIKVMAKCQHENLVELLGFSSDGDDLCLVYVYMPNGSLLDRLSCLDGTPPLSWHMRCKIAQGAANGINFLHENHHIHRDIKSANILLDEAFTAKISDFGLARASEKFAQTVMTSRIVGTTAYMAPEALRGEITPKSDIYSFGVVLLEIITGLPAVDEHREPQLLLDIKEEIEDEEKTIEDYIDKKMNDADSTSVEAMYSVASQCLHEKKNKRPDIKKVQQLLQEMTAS

[2] = molecular target: Protein-tyrosine kinase 2-beta (Homo sapiens) (UniProt Q14289); test: Inhibition of full length human N-terminal GST-tagged PYK2 (1 to 967 residues) expressed in baculovirus expression system using fluorescence labelled Blk/Lyntide as substrate at 50 times IC50 by electrophoretic mobility shift assay relative to control
Chain of Protein-tyrosine kinase 2-beta (Homo sapiens) (Q14289 whole entry, looked up, the tested form may be a part): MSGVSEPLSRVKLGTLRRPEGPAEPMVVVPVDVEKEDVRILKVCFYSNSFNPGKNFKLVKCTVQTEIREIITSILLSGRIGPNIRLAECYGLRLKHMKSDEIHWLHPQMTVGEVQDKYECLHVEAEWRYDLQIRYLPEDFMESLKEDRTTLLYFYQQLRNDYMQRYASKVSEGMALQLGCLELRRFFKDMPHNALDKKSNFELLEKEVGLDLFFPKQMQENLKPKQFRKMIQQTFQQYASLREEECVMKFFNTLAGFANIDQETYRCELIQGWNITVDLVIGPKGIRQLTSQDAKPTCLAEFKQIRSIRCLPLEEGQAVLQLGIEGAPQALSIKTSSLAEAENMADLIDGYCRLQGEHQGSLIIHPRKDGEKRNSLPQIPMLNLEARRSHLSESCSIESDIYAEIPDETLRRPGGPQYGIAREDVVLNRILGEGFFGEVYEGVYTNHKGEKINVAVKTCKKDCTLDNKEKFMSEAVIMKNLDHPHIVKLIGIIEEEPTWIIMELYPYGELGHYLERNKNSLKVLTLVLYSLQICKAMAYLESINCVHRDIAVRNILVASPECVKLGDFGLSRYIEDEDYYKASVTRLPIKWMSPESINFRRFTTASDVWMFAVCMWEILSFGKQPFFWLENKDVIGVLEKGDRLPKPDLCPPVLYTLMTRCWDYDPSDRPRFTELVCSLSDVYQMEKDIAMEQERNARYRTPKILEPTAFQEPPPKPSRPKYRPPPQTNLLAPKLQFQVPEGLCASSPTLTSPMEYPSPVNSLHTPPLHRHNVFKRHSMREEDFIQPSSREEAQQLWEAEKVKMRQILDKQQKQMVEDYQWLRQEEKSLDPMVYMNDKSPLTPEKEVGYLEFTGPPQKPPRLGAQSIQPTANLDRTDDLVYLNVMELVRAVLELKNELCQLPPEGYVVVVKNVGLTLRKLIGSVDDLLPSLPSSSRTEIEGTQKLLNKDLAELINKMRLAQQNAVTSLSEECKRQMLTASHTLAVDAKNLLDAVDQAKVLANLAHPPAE

[3] = molecular target: T2, Tyrosine-protein kinase ITK/TSK (Homo sapiens) (UniProt Q08881); test: Inhibition of full length human N-terminal GST-tagged ITK (2 to 620 residues) expressed in baculovirus expression system using fluorescence labelled srctide as substrate at 50 times IC50 by electrophoretic mobility shift assay relative to control
T2 sequence (whole entry): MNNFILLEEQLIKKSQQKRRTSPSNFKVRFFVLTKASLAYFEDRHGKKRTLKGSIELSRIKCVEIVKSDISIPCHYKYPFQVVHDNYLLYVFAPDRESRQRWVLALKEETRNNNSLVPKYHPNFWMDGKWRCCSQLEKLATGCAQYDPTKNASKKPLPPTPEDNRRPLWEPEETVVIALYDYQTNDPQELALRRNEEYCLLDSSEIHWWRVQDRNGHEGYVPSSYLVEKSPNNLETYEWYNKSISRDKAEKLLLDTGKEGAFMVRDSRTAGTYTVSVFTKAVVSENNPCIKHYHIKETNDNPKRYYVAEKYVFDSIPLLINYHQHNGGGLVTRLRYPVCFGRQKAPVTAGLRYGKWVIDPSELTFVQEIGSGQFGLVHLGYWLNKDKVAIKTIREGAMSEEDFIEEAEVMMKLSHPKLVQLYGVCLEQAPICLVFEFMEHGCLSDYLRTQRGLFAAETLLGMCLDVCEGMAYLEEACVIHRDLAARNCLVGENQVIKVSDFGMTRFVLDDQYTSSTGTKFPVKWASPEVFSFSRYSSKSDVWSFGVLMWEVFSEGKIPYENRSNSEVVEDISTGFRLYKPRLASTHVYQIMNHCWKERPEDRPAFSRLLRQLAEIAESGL

[4] = molecular target: T3, Serine/threonine-protein kinase Nek2 (Homo sapiens) (UniProt P51955); test: Inhibition of full length human N-terminal His-tagged NEK2 (1 to 445 residues) expressed in baculovirus expression system using fluorescence labelled CDK7 peptide substrate at 50 times IC50 by electrophoretic mobility shift assay relative to control
T3 sequence (whole entry): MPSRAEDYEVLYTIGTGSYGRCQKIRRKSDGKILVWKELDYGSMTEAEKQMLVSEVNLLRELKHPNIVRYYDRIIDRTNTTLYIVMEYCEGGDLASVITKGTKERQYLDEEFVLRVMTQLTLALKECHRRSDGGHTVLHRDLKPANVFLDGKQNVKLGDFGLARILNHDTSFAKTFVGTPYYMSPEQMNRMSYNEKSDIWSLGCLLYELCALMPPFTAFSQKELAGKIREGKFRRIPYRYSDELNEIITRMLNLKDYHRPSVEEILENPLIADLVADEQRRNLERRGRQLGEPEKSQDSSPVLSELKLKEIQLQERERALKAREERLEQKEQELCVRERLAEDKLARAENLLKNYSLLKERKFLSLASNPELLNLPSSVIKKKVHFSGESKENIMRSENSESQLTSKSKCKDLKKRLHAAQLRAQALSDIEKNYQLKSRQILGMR

[5] = molecular target: Glycogen synthase kinase-3 beta (Homo sapiens) (UniProt P49841); test: Inhibition of full length human N-terminal GST-tagged GSK3beta (1 to 420 residues) expressed in baculovirus expression system using fluorescence labelled CREBtide-p as substrate at 50 times IC50 by electrophoretic mobility shift assay relative to control
Chain of Glycogen synthase kinase-3 beta (Homo sapiens) (P49841 whole entry, looked up, the tested form may be a part): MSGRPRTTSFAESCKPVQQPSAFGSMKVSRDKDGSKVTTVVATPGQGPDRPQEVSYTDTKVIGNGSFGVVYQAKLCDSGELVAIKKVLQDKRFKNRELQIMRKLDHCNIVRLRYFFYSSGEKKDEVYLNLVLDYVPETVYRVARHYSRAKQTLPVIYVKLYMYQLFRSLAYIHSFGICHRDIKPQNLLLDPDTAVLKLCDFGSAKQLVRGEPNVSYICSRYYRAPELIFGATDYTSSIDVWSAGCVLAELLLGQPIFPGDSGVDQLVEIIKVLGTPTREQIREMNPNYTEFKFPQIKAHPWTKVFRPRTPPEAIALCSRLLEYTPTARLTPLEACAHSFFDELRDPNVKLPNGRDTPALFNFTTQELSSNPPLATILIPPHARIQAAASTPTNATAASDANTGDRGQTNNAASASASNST

[6] = molecular target: T4, Serine/threonine-protein kinase 4 (Homo sapiens) (UniProt Q13043); test: Inhibition of full length human N-terminal GST-tagged MST1 (1 to 487 residues) expressed in baculovirus expression system using fluorescence labelled IRS1 as substrate at 50 times IC50 by electrophoretic mobility shift assay relative to control
T4 sequence (whole entry): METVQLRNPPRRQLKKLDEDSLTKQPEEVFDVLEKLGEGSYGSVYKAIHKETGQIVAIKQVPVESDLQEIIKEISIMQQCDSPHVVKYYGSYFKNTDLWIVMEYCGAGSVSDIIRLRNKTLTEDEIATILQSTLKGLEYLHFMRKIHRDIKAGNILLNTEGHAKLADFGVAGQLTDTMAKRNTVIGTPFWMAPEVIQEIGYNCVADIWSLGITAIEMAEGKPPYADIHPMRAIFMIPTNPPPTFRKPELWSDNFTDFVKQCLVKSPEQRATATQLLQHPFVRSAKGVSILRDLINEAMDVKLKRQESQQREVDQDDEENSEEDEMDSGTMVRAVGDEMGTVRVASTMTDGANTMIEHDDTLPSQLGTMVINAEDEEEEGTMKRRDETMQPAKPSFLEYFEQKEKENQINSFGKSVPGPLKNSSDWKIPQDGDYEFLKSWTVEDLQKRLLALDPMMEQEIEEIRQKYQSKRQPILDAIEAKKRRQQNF

[7] = molecular target: cAMP-dependent protein kinase catalytic subunit alpha (Homo sapiens) (UniProt P17612); test: Inhibition of full length human N-terminal GST-tagged PKACalpha (1 to 351 residues) expressed in baculovirus expression system using fluorescence labelled kemptide as substrate at 50 times IC50 by electrophoretic mobility shift assay relative to control
[8] = molecular target: RAC-alpha serine/threonine-protein kinase (Homo sapiens) (UniProt P31749); test: Inhibition of human N-terminal GST-tagged AKT1 catalytic domain (104 to 480 residues) expressed in baculovirus expression system using fluorescence labelled crosstide as substrate at 50 times IC50 by electrophoretic mobility shift assay relative to control
Chain of RAC-alpha serine/threonine-protein kinase (Homo sapiens) (P31749 whole entry, the tested form may be a part): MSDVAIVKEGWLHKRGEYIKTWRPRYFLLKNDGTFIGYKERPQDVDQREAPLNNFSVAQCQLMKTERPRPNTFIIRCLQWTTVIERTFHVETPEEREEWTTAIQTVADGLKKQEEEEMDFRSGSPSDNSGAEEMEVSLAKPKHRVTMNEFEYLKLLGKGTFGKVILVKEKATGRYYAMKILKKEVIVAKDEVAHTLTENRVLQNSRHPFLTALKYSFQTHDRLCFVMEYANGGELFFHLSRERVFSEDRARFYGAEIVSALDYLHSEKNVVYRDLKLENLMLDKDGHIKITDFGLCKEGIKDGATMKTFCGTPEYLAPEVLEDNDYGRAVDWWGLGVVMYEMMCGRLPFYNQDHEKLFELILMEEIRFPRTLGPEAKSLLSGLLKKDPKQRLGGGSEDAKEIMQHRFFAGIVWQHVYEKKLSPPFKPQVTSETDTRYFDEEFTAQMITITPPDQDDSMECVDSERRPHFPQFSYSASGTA

`O=C(Nc1ccc(C(=O)N2CCN(c3ccccc3)CC2)cc1)c1n[nH]c2ccccc12` gave an inhibition [1] of 2.6%, an inhibition [2] of 34.9% and an inhibition [3] of 50.8%. The inhibition [4] was 0.2%, the inhibition [5] was 4.9% and the inhibition [6] was 16.8%. It also gave an inhibition [7] of 2.7% and an inhibition [8] of -1.1%.

`O=C(Nc1ccc(CN2CCN(c3ccccc3)CC2)cc1)c1n[nH]c2ccccc12` was tested, and the inhibition [1] was -1.9%, the inhibition [2] was 14.2% and the inhibition [3] was 37.4%. The inhibition [4] was -2.3%, the inhibition [5] was -3.7% and the inhibition [6] was 32.6%. For the same molecule, the inhibition [7] was -1.4% and the inhibition [8] was -3.3%.

With `O=C(Nc1ccccc1)c1n[nH]c2ccccc12` the inhibition [1] was 19.7%, the inhibition [2] was 49.5% and the inhibition [3] was 79.7%. For the same molecule, the inhibition [4] was 2.3%, the inhibition [5] was 51% and the inhibition [6] was 31.9%. For the same molecule, the inhibition [7] was 3.1% and the inhibition [8] was -2.4%.
